This note sets out measurements from ChEMBL document CHEMBL1155059, “Synthesis and biological evaluation of trisubstituted imidazole derivatives as inhibitors of p38alpha mitogen-activated protein kinase” (Bioorg Med Chem Lett, 2008).

Experiment [1] deals with Mitogen-activated protein kinase 14 (Homo sapiens, UniProt Q16539). Kind of experiment: Inhibition of human recombinant p38alpha MAPK expressed in Escherichia coli by radioisotopic protein kinase assay.
Experiment [2] addresses T1, TGF-beta receptor type-1 (Homo sapiens, UniProt P36897).
T1 sequence (P36897 whole entry): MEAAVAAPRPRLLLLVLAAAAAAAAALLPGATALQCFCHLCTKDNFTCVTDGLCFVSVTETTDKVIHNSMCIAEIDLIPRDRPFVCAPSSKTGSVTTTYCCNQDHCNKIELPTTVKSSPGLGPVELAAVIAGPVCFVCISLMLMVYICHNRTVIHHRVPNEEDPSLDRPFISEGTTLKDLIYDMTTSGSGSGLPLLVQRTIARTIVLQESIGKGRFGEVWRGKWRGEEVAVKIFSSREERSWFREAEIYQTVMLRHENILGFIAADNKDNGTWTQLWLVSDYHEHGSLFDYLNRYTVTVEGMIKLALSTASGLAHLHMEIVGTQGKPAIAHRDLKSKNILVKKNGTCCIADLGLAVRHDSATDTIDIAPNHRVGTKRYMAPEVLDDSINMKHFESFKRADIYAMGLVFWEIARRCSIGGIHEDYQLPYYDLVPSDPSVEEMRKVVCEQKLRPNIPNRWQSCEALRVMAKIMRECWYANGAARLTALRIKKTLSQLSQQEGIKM
The experiment in a line: Inhibition of GST fused human recombinant ALK5 expressed in Sf9 cells by radioisotopic protein kinase assay.

Chain of Mitogen-activated protein kinase 14 (Q16539 whole entry): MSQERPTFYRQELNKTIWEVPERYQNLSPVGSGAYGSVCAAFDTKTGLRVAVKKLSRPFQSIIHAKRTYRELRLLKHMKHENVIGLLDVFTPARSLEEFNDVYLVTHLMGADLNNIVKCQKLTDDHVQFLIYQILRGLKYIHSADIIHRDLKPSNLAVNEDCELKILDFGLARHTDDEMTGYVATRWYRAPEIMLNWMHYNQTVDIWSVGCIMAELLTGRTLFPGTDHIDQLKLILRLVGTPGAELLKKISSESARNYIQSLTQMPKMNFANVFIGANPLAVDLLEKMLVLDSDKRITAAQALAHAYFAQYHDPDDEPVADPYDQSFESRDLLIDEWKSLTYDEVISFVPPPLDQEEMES

For `NC(=O)N(c1nc(-c2ccc(F)cc2)cs1)c1c(Cl)cccc1Cl`, the IC50 in experiment [1] was 822 nM.
`COc1nccc(-c2ncn(Cc3cccc(C(N)=O)c3)c2-c2ccc(F)cc2)n1`: the half-inhibitory concentration (IC50) in experiment [2] and in experiment [1] was above 1000 nM each time.
Regarding `C[C@H](Nc1nccc(-c2c(-c3ccc(F)cc3)ncn2Cc2cccc(C(N)=O)c2)n1)c1ccccc1`, the half-inhibitory concentration (IC50) in experiment [2] was above 1000 nM; in experiment [1], 55.1 nM.
The matching figures for `C[C@H](Nc1nccc(-c2ncn(Cc3ccc(C#N)cc3)c2-c2ccc(F)cc2)n1)c1ccccc1`: above 1000 nM and above 1000 nM.
Turning to `NC(=O)c1cccc(Cn2cnc(-c3ccnc(NC4CC4)n3)c2-c2ccc(F)cc2)c1`, the IC50 in experiment [2] and in experiment [1] was above 1000 nM in each case.
Regarding `NC(=O)c1cccc(Cn2cnc(-c3ccc(F)cc3)c2-c2ccnc(NC3CC3)n2)c1`, the 50% inhibitory concentration (IC50) is above 1000 nM in experiment [2] and 27.6 nM in experiment [1].
In the case of `C[C@H](Nc1nccc(-c2ncn(Cc3cccc(C(N)=O)c3)c2-c2ccc(F)cc2)n1)c1ccccc1`, the IC50 in experiment [2] and in experiment [1] was above 1000 nM in each case.
Regarding `N#Cc1cccc(Cn2cnc(-c3ccnc(N)n3)c2-c2ccc(F)cc2)c1`, the half-inhibitory concentration (IC50) in experiment [2] and in experiment [1] was above 1000 nM each time.
`NC(=O)c1cccc(Cc2nc(-c3ccc(F)cc3)c(-c3ccnc(NC4CC4)n3)[nH]2)c1`: the figures for the IC50 in experiment [2] and in experiment [1] were above 1000 nM and 31 nM, respectively.
With `COc1nccc(-c2[nH]c(Cc3cccc(C#N)c3)nc2-c2ccc(F)cc2)n1`, the values for the IC50 in experiment [2] and in experiment [1] were above 1000 nM and 62.8 nM, respectively.
The matching figures for `COc1nccc(-c2ncn(Cc3cccc(C#N)c3)c2-c2ccc(F)cc2)n1`: above 1000 nM and above 1000 nM.
As for `C[C@H](Nc1nccc(-c2c(-c3ccc(F)cc3)ncn2Cc2ccc(C#N)cc2)n1)c1ccccc1`, the 50% inhibitory concentration (IC50) in experiment [2] was above 1000 nM; in experiment [1] it was 87.1 nM.
As for `N#Cc1cccc(Cn2cnc(-c3ccnc(NC4CC4)n3)c2-c2ccc(F)cc2)c1`, the IC50 in experiment [2] and in experiment [1] was above 1000 nM each time.
On to `NC(=O)c1cccc(Cn2cnc(-c3ccnc(N)n3)c2-c2ccc(F)cc2)c1`, for which the half-maximal inhibitory concentration (IC50) in experiment [2] and in experiment [1] was above 1000 nM throughout.
As for `COc1nccc(-c2[nH]c(Cc3cccc(C(N)=O)c3)nc2-c2ccc(F)cc2)n1`, the IC50 in experiment [2] is above 1000 nM; in experiment [1] it was 48.5 nM.
`COc1nccc(-c2ncn(Cc3ccc(C(N)=O)cc3)c2-c2ccc(F)cc2)n1`: the half-maximal inhibitory concentration (IC50) in experiment [2] and in experiment [1] was above 1000 nM each time.
As to `COc1nccc(-c2ncn(Cc3ccc(C#N)cc3)c2-c2ccc(F)cc2)n1`, the IC50 in experiment [2] and in experiment [1] was above 1000 nM throughout.
`COc1nccc(-c2c(-c3ccc(F)cc3)ncn2Cc2cccc(C(N)=O)c2)n1`: the IC50 was above 1000 nM in experiment [2] and 225 nM in experiment [1].
On to `Cc1cccc(-c2[nH]c(Cc3cccc(C(N)=O)c3)nc2-c2ccc3nccnc3c2)n1`, for which the IC50 in experiment [1] was determined as 4300 nM.
With `C[C@H](Nc1nccc(-c2[nH]c(Cc3cccc(C#N)c3)nc2-c2ccc(F)cc2)n1)c1ccccc1`, the half-maximal inhibitory concentration (IC50) in experiment [2] was above 1000 nM; in experiment [1], 95.4 nM.
In the case of `N#Cc1cccc(Cn2cnc(-c3ccc(F)cc3)c2-c2ccnc(N)n2)c1`, the IC50 is above 1000 nM in experiment [2] and 101 nM in experiment [1].
The matching figures for `C[C@H](Nc1nccc(-c2[nH]c(Cc3cccc(C(N)=O)c3)nc2-c2ccc(F)cc2)n1)c1ccccc1`: above 1000 nM and 78 nM.
`C[C@H](Nc1nccc(-c2c(-c3ccc(F)cc3)ncn2Cc2ccc(C(N)=O)cc2)n1)c1ccccc1`: the results for the IC50 in experiment [2] and in experiment [1] were above 1000 nM and 55.6 nM, respectively.
`C[C@H](Nc1nccc(-c2ncn(Cc3ccc(C(N)=O)cc3)c2-c2ccc(F)cc2)n1)c1ccccc1`: the concentration for half-maximal inhibition (IC50) in experiment [2] and in experiment [1] was above 1000 nM in each case.
For the molecule `COc1nccc(-c2c(-c3ccc(F)cc3)ncn2Cc2ccc(C#N)cc2)n1`, the concentration for half-maximal inhibition (IC50) is above 1000 nM in experiment [2] and 859 nM in experiment [1].
Consider `N#Cc1cccc(Cn2cnc(-c3ccc(F)cc3)c2-c2ccnc(NC3CC3)n2)c1`, for which the IC50 in experiment [2] is above 1000 nM; in experiment [1] it was 62.6 nM.
For the molecule `N#Cc1cccc(Cc2nc(-c3ccc(F)cc3)c(-c3ccnc(NC4CC4)n3)[nH]2)c1`, the 50% inhibitory concentration (IC50) in experiment [2] is above 1000 nM; in experiment [1], 54.4 nM.
For the molecule `N#Cc1cccc(Cc2nc(-c3ccc(F)cc3)c(-c3ccnc(N)n3)[nH]2)c1`, the figures for the half-inhibitory concentration (IC50) in experiment [2] and in experiment [1] were above 1000 nM and 28 nM, respectively.
In the case of `COc1ccc(CNc2nccc(-c3c(-c4ccc(F)cc4)ncn3Cc3cccc(C#N)c3)n2)cc1`, the results for the IC50 in experiment [2] and in experiment [1] were above 1000 nM and 191 nM, respectively.
With `COc1ccc(CNc2nccc(-c3[nH]c(Cc4cccc(C#N)c4)nc3-c3ccc(F)cc3)n2)cc1`, the half-inhibitory concentration (IC50) in experiment [2] is above 1000 nM; in experiment [1], 148 nM.
Consider `C[C@H](Nc1nccc(-c2c(-c3ccc(F)cc3)ncn2Cc2cccc(C#N)c2)n1)c1ccccc1`, for which the half-maximal inhibitory concentration (IC50) in experiment [2] was above 1000 nM; in experiment [1], 140 nM.
On to `COc1nccc(-c2c(-c3ccc(F)cc3)ncn2Cc2cccc(C#N)c2)n1`, for which the half-inhibitory concentration (IC50) in experiment [2] was above 1000 nM; in experiment [1], 260 nM.
On to `COc1nccc(-c2c(-c3ccc(F)cc3)ncn2Cc2ccc(C(N)=O)cc2)n1`, for which the values for the IC50 in experiment [2] and in experiment [1] were above 1000 nM and 916 nM, respectively.
As to `C[C@H](Nc1nccc(-c2ncn(Cc3cccc(C#N)c3)c2-c2ccc(F)cc2)n1)c1ccccc1`, the IC50 in experiment [2] and in experiment [1] was above 1000 nM in each case.
Turning to `NC(=O)c1cccc(Cn2cnc(-c3ccc(F)cc3)c2-c2ccnc(N)n2)c1`, the IC50 in experiment [2] was above 1000 nM; in experiment [1] it was 344 nM.
With `COc1ccc(CNc2nccc(-c3ncn(Cc4cccc(C#N)c4)c3-c3ccc(F)cc3)n2)cc1`, the half-inhibitory concentration (IC50) in experiment [2] and in experiment [1] was above 1000 nM each time.
